From patent US20220267331A1, “DOPAMINE-B-HYDROXYLASE INHIBITORS” (BIAL - PORTELA & CA, S.A., priority 2019, published 2022)
pIC50: −log10 of the molar value. Counter-ions that a name gives are not always drawn.

Biological target: T1, DβH (Homo sapiens, UniProt P09172)
T1 construct: 125 μL of plasma (or saline for blank reaction or standard curve); tissue Instituto Português do Sangue Transplantação, Centro Sangue Transplantação, Porto, Portugal; host or cells: human plasma from healthy donors
T1 sequence (P09172 40-617 limits assumed): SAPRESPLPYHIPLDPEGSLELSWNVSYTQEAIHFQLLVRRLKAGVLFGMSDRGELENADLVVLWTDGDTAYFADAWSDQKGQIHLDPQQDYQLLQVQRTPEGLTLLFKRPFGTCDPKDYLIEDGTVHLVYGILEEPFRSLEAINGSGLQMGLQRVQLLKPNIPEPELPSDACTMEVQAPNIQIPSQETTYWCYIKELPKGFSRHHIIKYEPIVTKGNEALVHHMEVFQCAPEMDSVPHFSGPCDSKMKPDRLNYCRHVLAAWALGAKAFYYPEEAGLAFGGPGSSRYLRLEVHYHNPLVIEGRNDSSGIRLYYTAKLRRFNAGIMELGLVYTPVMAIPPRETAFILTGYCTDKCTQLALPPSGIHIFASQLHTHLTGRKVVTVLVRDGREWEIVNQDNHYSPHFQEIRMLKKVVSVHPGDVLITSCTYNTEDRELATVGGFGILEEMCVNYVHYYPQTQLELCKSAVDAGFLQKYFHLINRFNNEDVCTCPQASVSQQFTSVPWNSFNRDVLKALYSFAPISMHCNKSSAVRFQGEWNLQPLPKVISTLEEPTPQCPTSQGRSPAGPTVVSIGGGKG
Test: Dopamine-β-hydroxylase inhibition assay in human plasma
Assay type: biochemical
Settings: for remaining activity at 0.01 µM / DβH (0.01 μM): DβH activity in human plasma at 0.01 μM inhibitor; for remaining activity at 0.1 µM / DβH (0.1 μM): DβH activity in human plasma at 0.1 μM inhibitor; for pIC50: human plasma, curve fitting of 6 concentrations (100 nM to 0.3 nM)
Experimental: The ability of a compound to inhibit DβH activity may be assessed in human plasma using the following assay.
Dopamine beta hydroxylase activity in human plasma was measured by the method of Nagatsu and Udenfriend (Nagatsu, T. and Udenfriend, S. “Photometric assay of dopamine-p-hydroxylase activity in human blood.” Clin. Chem. 18(9) 980-983, 1972) with minor modifications. Catalase, N-ethylmaleimide, tyramine, disodium fumarate, pargyline, sodium acetate, ascorbic acid, copper sulfate and octopamine were obtained from Sigma Chemical Co., St. Louis, Mo. 63178. Human plasma samples were obtained from healthy donors (Instituto Português do Sangue Transplantação, Centro Sangue Transplantação, Porto, Portugal). From date of collection, plasma was stored at −80° C. until use. Test compounds were initially prepared in dimethyl sulfoxide at a concentration of 10 mM and diluted in dimethyl sulfoxide to the required concentrations. Test compounds were further diluted in ultrapure water to a concentration 20-fold to that of the final concentration to be tested. Final concentrations of test compounds were 10 and 100 nM. The various reagents used to make up the incubation buffer were premixed and consisted of the following components: sodium acetate buffer (1 M, pH 5.0, 18 mL), sodium fumarate (0.2 M, 4.5 mL), ascorbic acid (0.2 M, 4.5 ml, freshly prepared), pargyline (20 mM, freshly prepared, 4.5 mL), N-ethylmaleimide (0.2 M, 4.5 mL), catalase (10 000 U/mL, 9 mL), copper sulfate (20 μM, 4.5 mL) and 4.5 ultrapure water. The standard incubation mixture (total volume, 950 μL) contained: 50 μL of compound or vehicle (dimethyl sulfoxide 2%); 700 μL of incubation buffer; 125 μL of plasma (or saline for blank reaction or standard curve); 75 μL of saline. The reaction mixture was placed in water bath, shaking at 37° C. and pre-incubated for 10 minutes. Tyramine (0.5 M) was added and incubation proceeded for 45 minutes. The reaction contents were exposed to air. A sample of enzyme preparation (with 125 μL of plasma) that had been added perchloric acid 2 M at the end of the pre-incubation period was used as blank. A blank for each of the tested compounds was used. For octopamine standard curve, perchloric acid 2 M was replaced by increasing concentrations of octopamine prepared in perchloric acid 2 M (0.5, 1, 2.5, 5, 7.5, 10, 15, 20 μg/mL, final concentration). The incubation was stopped by adding 200 μL of 2 M molar perchloric acid, and the mixture was centrifuged at 9000 g for 5 min. The supernatant fluid (800 μL) was transferred to a column (SPE cartridge ISOLUTE SCX-3, 100 mg) and centrifuged at 150 g for 2 min. The column was washed two more times with 0.5 ml of ultrapure water by centrifuging at 150 g for 2 min. The adsorbed octopamine was eluted twice with 0.3 mL of 4 M ammonium hydroxide by centrifuging at 150 g for 2 min. Octopamine in the eluate was then converted to p-hydroxybenzaldehyde by adding 200 μL of sodium periodate (2%) and incubating for 6 min. Excess periodate was than reduced by adding 200 μL of sodium metabisulfite (10%). Absorbance was measured at […] in a 96-well plate by use of a SpectraMAX plus 384 (Molecular Devices) with software SOFTmax® PRO Software 5.3 spectrophotometer. Absorbance was linear with octopamine concentration from 0.5 to 20 μg/mL. Dopamine beta hydroxylase activity is determined as nmol of octopamine formed/mL of plasma/hour and effect of compounds is presented as % control. Results are reported in the table below as activity in % of control at the inhibitor concentration tested.
IC50 values of selected compounds were calculated based on curve fitting of results of 6 different compound concentrations (100 nM to 0.3 nM). IC50 data are reported in nM concentration.

Structure (SMILES)	remaining activity at 0.01 µM [%]	remaining activity at 0.1 µM [%]	DβH (0.01 μM)	DβH (0.1 μM)	pIC50
CN(CCCc1[nH]c(=S)n2c1C[C@H](c1c(F)ccc(F)c1F)C2)C1CCOCC1.Cl [Example 14, (R)-1-(3-(methyl(tetrahydro-2H-pyran-4-yl)amino)propyl)-6-(2,3,6-trifluorophenyl)-2,5,6,7-tetrahydro-3H-pyrrolo[1,2-c]imidazole-3-thione hydrochloride]	–	–	73.2 % of Control	19.0 % of Control	7.48
Cl.NCCCc1[nH]c(=S)n2c1C[C@H](c1c(F)ccc(F)c1F)C2 [Example 4, (R)-1-(3-aminopropyl)-6-(2,3,6-trifluorophenyl)-2,5,6,7-tetrahydro-3H-pyrrolo[1,2-c]imidazole-3-thione hydrochloride]	–	–	82.7 % of Control	54.2 % of Control	–
Fc1ccc(F)c([C@H]2Cc3c(CCCN4CC[C@@H](F)C4)[nH]c(=S)n3C2)c1F [Example 11, (R)-1-(3-((R)-3-fluoropyrrolidin-1-yl)propyl)-6-(2,3,6-trifluorophenyl)-2,5,6,7-tetrahydro-3H-pyrrolo[1,2-c]imidazole-3-thione]	–	–	40.6 % of Control	7.7 % of Control	8.14
Fc1ccc(Cl)c(F)c1[C@]12C[C@H]1c1c(CCCN3CCOCC3)[nH]c(=S)n1C2 [Example 15, (5aS,6aR)-5a-(3-chloro-2,6-difluorophenyl)-1-(3-morpholinopropyl)-5,5a,6,6a-tetrahydrocyclopropa[3,4]pyrrolo[1,2-c]imidazole-3(2H)-thione hydrochloride]	13.6	1	–	–	8.57

The remaining lines, values ahead:

remaining activity at 0.01 µM [%]	remaining activity at 0.1 µM [%]	DβH (0.01 μM)	DβH (0.1 μM)	pIC50	Structure (SMILES)
45.3	8.5	–	–	–	Fc1ccc(Cl)cc1[C@]12C[C@H]1c1c(CCCN[C@H]3CCCOC3)[nH]c(=S)n1C2 [Example 21, (5aS,6aR)-5a-(5-chloro-2-fluorophenyl)-1-(3-(((S)-tetrahydro-2H-pyran-3-yl)amino)propyl)-5,5a,6,6a-tetrahydrocyclopropa[3,4]pyrrolo[1,2-c]imidazole-3(2H)-thione]
36.2	3.3	–	–	8.11	Fc1ccc(Cl)cc1[C@]12C[C@H]1c1c(CCCN3CCOCC3)[nH]c(=S)n1C2 [Example 16, (5aS,6aR)-5a-(5-chloro-2-fluorophenyl)-1-(3-morpholinopropyl)-5,5a,6,6a-tetrahydrocyclopropa[3,4]pyrrolo[1,2-c]imidazole-3(2H)-thione]
